Data from patent publication US20050277615A1, “Pharmaceutical compositions having anti-inflammatory activity” (CAN-FITE BIOPHARMA LTD., priority 2004, published 2005).

What was measured:
[1] = target: T1, A2A receptor in rat striatum (Rattus norvegicus, UniProt P30543); test: Radioligand binding, [3H]ZM 241385 displacement; details: [3H]ZM 241385, rat striatal membranes
T1 construct: the A2A receptor in rat striatum; from tissue; host or cells: rat striatum

[2] = Preliminary qualitative solubility study; type: physicochemical; details: 1 mg/ml, ambient temperature
EAE in female C57B1 mice = test: MOG-induced EAE in C57B1 mice, clinical score; type: in vivo, mouse; details: MOG-immunized C57BL/6J female mice, oral treatment from day 7 (FIG. 3)
Method: . The encephalitogenic emulsion containing MOG (300 μg/mouse) in Complete Freund's adjuvant enriched with 5 mg/mL Mycobacterium Tuberculosis was injected subcutaneously in the right flank of the mouse. A boost of the encephalitogenic emulsion was injected subcutaneously in the left flank one week later. Also, on the day of the first injection of MOG, Pertussis toxin (300 ng/mouse) was injected intraperitoneally at a volume dose of 0.1 mL/mouse. The injection of the Pertussis Toxin was repeated after 48 hours. The mice were observed daily from the 10th day post-EAE induction (first injection of MOG) and the EAE clinical signs were scored as follows:. 0—No neurological signs; 1—Distal limp tail: 1.5—Complete limp tail; 2—Difficulties to return on feet when laid on the back; 3—Ataxia; 4—Early paralysis; 5—Full paralysis; 6—Moribund/Death. […] The clinical score was monitored daily starting with the appearance of neurological signs.

[3] = target: T2, adenosine A1 receptor in rat brain cortex (Rattus norvegicus, UniProt P25099); test: Radioligand binding, [3H]DPCPX displacement; details: rat cortical membranes, 10 μM
T2 construct: the adenosine A1 receptor in rat brain cortex; from tissue; host or cells: rat brain cortex
T2 sequence (P25099 1-326): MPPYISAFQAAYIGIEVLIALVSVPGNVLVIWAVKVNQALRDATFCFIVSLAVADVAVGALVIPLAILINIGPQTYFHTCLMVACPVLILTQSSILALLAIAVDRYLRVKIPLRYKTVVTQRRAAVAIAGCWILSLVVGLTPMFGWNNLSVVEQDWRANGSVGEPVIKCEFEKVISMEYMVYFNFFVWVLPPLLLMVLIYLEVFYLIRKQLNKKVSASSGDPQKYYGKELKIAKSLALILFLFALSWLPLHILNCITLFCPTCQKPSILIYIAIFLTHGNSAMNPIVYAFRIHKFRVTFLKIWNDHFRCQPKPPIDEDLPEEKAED

[4] = test system: Experimental autoimmune encephalomyelitis (EAE) in female Lewis rats; test: MBP-induced EAE in Lewis rats, clinical score; type: in vivo, rat; details: 10 μg/kg PO BID from day 7, difference in maximal clinical score P<0.01 (FIG. 1)
Method: EAE is an inflammatory demyelinating disease of the nervous system, which serves as a model for multiple sclerosis (MS). EAE was induced by intradermal injection at the base of the tail of female Lewis rats (8 weeks old) with an emulsion consisting of the following for each rat: 100 μg myelin basic protein (MBP) from guinea pig (M2295; Sigma), 0.1 ml Complete Freund's adjuvant (CFA; F5506, Sigma), and 0.2 mg of Mycobacterium tuberculosis H37 Ra (M. tuberculosis, 3114, Difco). The emulsion was injected in two halves into the medial footpad of each hind limb of the rats.
The rats developed clinical EAE symptoms which were graded into the following categories: 0, no neurological symptoms; 1, loss of tail tonus and paralysis of the whole tail; 2, hind limbs weakness; 3, hind limbs paralysis; 4, quadriplegia; 5, moribund. The immunized rats developed acute monophasic EAE within 10 days after immunization.

phosphorylated GSK-3β = test: Western blot of spinal cord protein extract of EAE rats; type: in vivo, rat; details: treated vs untreated (FIG. 2)
TNF-α = test: as above; type: in vivo, rat; details: treated vs untreated (FIG. 2)
IL-10 = test: as above; type: in vivo, rat; details: treated vs untreated (FIG. 2)
[5] = target: T3, human adenosine A2A receptors expressed in CHO cells (Homo sapiens, UniProt P29274); test: cAMP assay A2A (stimulation of cAMP production); type: cell-based
T3 construct: expressed in transfected cells; host or cells: CHO
T3 sequence (P29274 whole entry): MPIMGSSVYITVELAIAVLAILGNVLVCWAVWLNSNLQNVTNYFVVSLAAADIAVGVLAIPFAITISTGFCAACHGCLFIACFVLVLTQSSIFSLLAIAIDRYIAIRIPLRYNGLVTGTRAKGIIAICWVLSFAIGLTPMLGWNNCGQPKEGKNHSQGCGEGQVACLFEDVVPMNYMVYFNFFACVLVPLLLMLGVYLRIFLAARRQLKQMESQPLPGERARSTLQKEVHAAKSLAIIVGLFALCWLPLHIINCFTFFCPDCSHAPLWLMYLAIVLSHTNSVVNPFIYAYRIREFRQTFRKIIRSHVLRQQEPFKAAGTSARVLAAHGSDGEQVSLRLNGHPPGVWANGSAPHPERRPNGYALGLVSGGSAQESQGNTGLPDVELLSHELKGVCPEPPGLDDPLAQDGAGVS
Method: After incubation for 40 minutes at 37° C., 100 μL agonist was added. […] Wells were stored at −20° C. until assay.
Wells were stored at −20° C. until assay. […] As a buffer was used 150 mM K2HPO4/10 mM EDTA/0.2% Bovine Serum Albumine (BSA) at pH 7.5.
(§1) Data Analysis. Apparent Ki and EC50 values were computed from the displacement curves by non-linear regression of the competition curves with the software package Prism (Graph Pad, San Diego, Calif.).

[6] = test system: colitis in male Balb/C mice; test: Dextran sodium sulfate colitis model; type: in vivo, mouse; details: 5% DSS Balb/c mice
Source text: Colitis induced by dextran sodium sulfate is a murine model of intestinal inflammation that resembles human inflammatory bowel diseases such as Crohn's disease. Male Balb/C mice, 8 weeks of age were fed for 7 days, with 5% dextran sulfate sodium in distilled water throughout the experiments. […] Weight loss and survival were monitored.

[7] = target: T4, human A3 receptor as expressed in HEK 293 cells (Homo sapiens, UniProt P0DMS8); test: Radioligand binding, [125I]AB-MECA displacement; details: human A3 receptor in HEK 293 cells, ±SEM, n = 3
T4 construct: expressed in transfected cells; host or cells: HEK 293
T4 sequence (P0DMS8 1-318): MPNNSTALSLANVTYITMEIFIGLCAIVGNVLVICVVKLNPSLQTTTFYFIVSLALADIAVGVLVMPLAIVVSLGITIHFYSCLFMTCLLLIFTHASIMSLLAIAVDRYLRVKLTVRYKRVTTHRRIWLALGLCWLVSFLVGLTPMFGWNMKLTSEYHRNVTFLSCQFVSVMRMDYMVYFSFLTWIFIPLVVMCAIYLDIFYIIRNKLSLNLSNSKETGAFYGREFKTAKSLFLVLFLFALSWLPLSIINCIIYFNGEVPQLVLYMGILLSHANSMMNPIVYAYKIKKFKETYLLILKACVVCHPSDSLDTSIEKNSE
Method: General. […] AB-MECA, an A3 receptor agonist, was used. Displacement experiments were performed in the absence of GTP.
Radioligand Binding Studies. […] Incubations were carried out for 1 hr at 37° C. and were terminated by rapid filtration over Whatman GF/B filters, using a Brandell cell harvester (Brandell, Gaithersburg, Md.). Tubes were washed three times with 3 ml of buffer. Radioactivity was determined in a Beckman 5500B γ-counter. Nonspecific binding was determined in the presence of 10^−5 M R-PIA.
as §1

A1 receptor = target: T5, A1 receptor (Rattus norvegicus, UniProt P25099); details: Siddiqi et al (1995); cited from earlier work
T5 sequence (P25099 1-326): T2 sequence (P25099 1-326)

A2a receptor = A2a receptor (Rattus norvegicus, UniProt P30543); details: Siddiqi et al (1995); cited from earlier work
Sequence of A2a receptor (P30543 whole entry): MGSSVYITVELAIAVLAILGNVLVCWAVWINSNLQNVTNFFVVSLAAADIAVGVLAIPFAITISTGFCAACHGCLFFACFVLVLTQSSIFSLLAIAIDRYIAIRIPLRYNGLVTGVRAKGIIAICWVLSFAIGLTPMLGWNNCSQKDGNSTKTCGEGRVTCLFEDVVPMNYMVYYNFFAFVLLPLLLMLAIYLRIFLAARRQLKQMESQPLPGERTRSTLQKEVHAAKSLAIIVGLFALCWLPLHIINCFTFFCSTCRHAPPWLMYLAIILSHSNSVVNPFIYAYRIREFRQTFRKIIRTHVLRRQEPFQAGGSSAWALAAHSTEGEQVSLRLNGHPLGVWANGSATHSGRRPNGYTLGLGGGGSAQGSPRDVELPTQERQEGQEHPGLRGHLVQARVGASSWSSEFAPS

[8] = test system: multiple sclerosis (MS) patients; details: patients having MS, U.S. Pat. No. 5,506,214; cited from earlier work

T1 sequence (P30543 whole entry): as above

CNC(=O)[C@H]1O[C@@H](n2cnc3c(NCc4cccc(I)c4)nc(Cl)nc32)[C@H](O)[C@@H]1O [Cl-IB-MECA, reference compound]
% displacement at 10^−5 M, A2A ([1]; 10 μM): 24%

CCCCC#Cc1nc(N)c2ncn(C3OC(CSC)C(O)C3O)c2n1 (stereo not drawn) [CF402, 5′-deoxy-2-(1-hexynyl)-5′-methylthioadenosine]
Ki ([1]; ±SEM, n = 3): 60 ± 20 nM
Solubility in DMSO ([2]; DMSO): Soluble
Solubility in water ([2]; water): Insoluble
Inhibition of development of EAE clinical signs vs control group (EAE in female C57B1 mice): 40%
% displacement at 10^−5 M, A1 [3]: 36%
Clinical EAE score vs control group [4]: remarkably low clinical score
Phosphorylated GSK-3β protein expression level in spinal cord (phosphorylated GSK-3β): decrease
Level of TNF-α in spinal cord protein extract (TNF-α): down-regulation
Level of IL-10 in spinal cord protein extract (IL-10): up-regulation
Emax ([5]; CHO): 45 ± 6%
EC50 ([5]; cAMP production, A2A CHO cells): 0.7 ± 0.1 µM
Clinical signs of colitis ([6]; 10 μg/kg PO BID from day 4): protected
Weight loss vs control ([6]; 10 μg/kg PO BID from day 4 (FIG. 4)): reduced weight loss

OC[C@H]1O[C@@H](n2cnc3c(NC4CCCC4)ncnc32)[C@H](O)[C@@H]1O [CPA]
Ki [7]: 120 ± 15 nM

Nc1nc(Cl)nc2c1ncn2[C@H]1C[C@H](O)[C@@H](CO)O1 [CdA, 2-chloro-2′-deoxyadenosine]
Type of action at A1 receptors (A1 receptor): putative partial agonist
Ki (A2a receptor): 20 µM
Effect on MS disease condition [8]: markedly ameliorate
